According to patent US20240009159A1, “ANTIVIRAL COMPOSITION FOR SARS-COV-2 AND HCOV-OC43 COMPRISING RHEIN, MECLOFENAMIC ACID, OR A COMBINATION THEREOF” (SEOUL NATIONAL UNIVERSITY R&DB FOUNDATION, priority 2020, published 2024):
Where two headings read alike, the source gives them in different places.

Tests used:
HCoV-OC43 [1] = test: viral RNA level by qRT-PCR in HCoV-OC43-infected Vero cells; type: cell-based, human coronavirus OC43 (HCoV-OC43); settings: for viral RNA level of N (normalized to GAPDH): control DMSO
SARS-CoV-2 [2] = type: cell-based; settings: SARS-CoV-2-infected Vero cells
SARS-CoV-2 [3] = type: cell-based; settings: MA at 50 μM, treated two hours before infection; SARS-CoV-2-infected differentiated HBEC cells, 3.3×10^4 PFU; 48 hours after infection
HCoV-OC43 [4] = test: viral RNA level by qRT-PCR in HCoV-OC43-infected HCT-8 cells; type: cell-based, human coronavirus OC43 (HCoV-OC43)
SARS-CoV-2 [5] = type: cell-based; settings: SARS-CoV-2-infected Calu-3 cells
[6] = rhein at 25 μM, MOI 0.05, 24 hours after infection, control DMSO

SMILES	viral RNA level of N (normalized to GAPDH) (HCoV-OC43 [1]; MA at 10 μM, 25 μM, 50 μM, and 100 μM)	viral RNA levels of nsp12, M, and N (normalized to GAPDH) compared with the control group (SARS-CoV-2 [2]; MA at 50 μM, control ethanol)	viral RNA levels (nsp12, M, and N, normalized to GAPDH) compared with the control group (SARS-CoV-2 [3]) [%]	viral RNA level of N (normalized to GAPDH) (HCoV-OC43 [4]; MA at 50 μM, control DMSO and ethanol)	viral RNA levels of nsp12, M, and N (normalized to GAPDH) compared with the control group (SARS-CoV-2 [5]; MA at 50 μM, control ethanol)	dose dependence of inhibition of the RNA level of N (HCoV-OC43 [1]; increasing concentration of rhein (5-50 μM), FIG. 1D)	viral RNA level of N (normalized to GAPDH) (HCoV-OC43 [1]; rhein at 5 μM, 10 μM, 25 μM, and 50 μM, 24 hours after infection)	viral RNA levels of nsp12, M, and N (normalized to GAPDH) compared with the control group (SARS-CoV-2 [2]; [6])	viral RNA level of N (normalized to GAPDH) (HCoV-OC43 [4]; rhein at 250 μM and 25 μM, 24 hours after infection, control DMSO+Ethanol)	viral RNA levels of nsp12, M, and N (normalized to GAPDH) compared with the control group (SARS-CoV-2 [5]; [6])
Cc1ccc(Cl)c(Nc2ccccc2C(=O)O)c1Cl [MA, meclofenamic acid]	significantly inhibited	less than 5%	≤ 40	significantly inhibited	less than 5%					
O=C(O)c1cc(O)c2c(c1)C(=O)c1cccc(O)c1C2=O [rhein, 4,5-dihydroxy-9,10-dioxoanthracene-2-carboxylic acid]						dose-dependent effect was confirmed	significantly inhibited	less than 30%	significantly inhibited	less than 5%
